Residues, ends and D or L forms follow the SMILES beside them.
Key:
human Glucagon-R = target: T1, human Glucagon-R (Homo sapiens, UniProt P47871); assay: Glucagon receptor efficacy assay (cAMP generation in HEK293 cells); format: cell-based; conditions: cAMP generation in HEK293 cells expressing Glucagon receptor
T1 construct: The DNA encoding the Glucagon-R or the GLP-1-R was amplified by PCR using primers encoding terminal restriction sites for subcloning; expressed in transfected cells
Excerpt: (§1) The DNA encoding the Glucagon-R or the GLP-1-R was amplified by PCR using primers encoding terminal restriction sites for subcloning. The 5′-end primers additionally encoded a near Kozak consensus sequence to ensure efficient translation. The fidelity of the DNA encoding the Glucagon-R and the GLP-1-R was confirmed by DNA sequencing. The PCR products encoding the Glucagon-R or the GLP-1-R were subcloned into a mammalian expression vector containing a neomycin (G418) resistance marker. The mammalian expression vectors encoding the Glucagon-R or the GLP-1-R were transfected into HEK293 cells by a standard calcium phosphate transfection method. 48 hr after transfection cells were seeded for limited dilution cloning and selected with 1 mg/ml G418 in the culture medium. Three weeks later 12 surviving colonies of Glucagon-R and GLP-1-R expressing cells were picked, propagated and tested in the Glucagon-R and GLP-1-R efficacy assays as described below. One Glucagon-R expressing clone and one GLP-1-R expressing clone were chosen for compound profiling.
(§2) On the day of analysis, growth medium was removed and the cells washed once with 200 μl Tyrode buffer. Cells were incubated in 100 μl Tyrode buffer containing increasing concentrations of test peptides, 100 μM IBMX, and 6 mM glucose for up 15 min at 37° C. The reaction was stopped by addition of 25 μl 0.5 M HCl and incubated on ice for 60 min. The cAMP content was estimated using the FlashPlate® cAMP kit from Perkin-Elmer according to manufacturer instructions. EC50 and relative efficacies compared to reference compounds (glucagon and GLP-1) were estimated by computer aided curve fitting.

human GLP-1-R = target: T2, human GLP-1-R (Homo sapiens, UniProt P43220); assay: GLP-1 receptor efficacy assay (cAMP generation in HEK293 cells); format: cell-based; conditions: cAMP generation in HEK293 cells expressing GLP-1 receptor
T2 construct: The DNA encoding the Glucagon-R or the GLP-1-R was amplified by PCR using primers encoding terminal restriction sites for subcloning; expressed in transfected cells
Excerpt: as §1, §2

T1 sequence (P47871 26-477): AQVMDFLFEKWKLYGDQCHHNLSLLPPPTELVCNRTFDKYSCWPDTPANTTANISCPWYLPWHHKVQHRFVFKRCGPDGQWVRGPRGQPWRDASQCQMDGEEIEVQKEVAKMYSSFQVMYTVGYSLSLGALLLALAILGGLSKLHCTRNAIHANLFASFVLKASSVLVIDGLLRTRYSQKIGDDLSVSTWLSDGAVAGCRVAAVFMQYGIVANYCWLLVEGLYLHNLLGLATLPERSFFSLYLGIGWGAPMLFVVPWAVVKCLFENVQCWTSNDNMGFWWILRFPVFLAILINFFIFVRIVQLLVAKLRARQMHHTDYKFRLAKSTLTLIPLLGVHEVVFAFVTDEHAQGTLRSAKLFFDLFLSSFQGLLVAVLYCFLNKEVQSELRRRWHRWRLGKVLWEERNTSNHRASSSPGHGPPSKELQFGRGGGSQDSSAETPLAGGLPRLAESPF
T2 sequence (P43220 24-463): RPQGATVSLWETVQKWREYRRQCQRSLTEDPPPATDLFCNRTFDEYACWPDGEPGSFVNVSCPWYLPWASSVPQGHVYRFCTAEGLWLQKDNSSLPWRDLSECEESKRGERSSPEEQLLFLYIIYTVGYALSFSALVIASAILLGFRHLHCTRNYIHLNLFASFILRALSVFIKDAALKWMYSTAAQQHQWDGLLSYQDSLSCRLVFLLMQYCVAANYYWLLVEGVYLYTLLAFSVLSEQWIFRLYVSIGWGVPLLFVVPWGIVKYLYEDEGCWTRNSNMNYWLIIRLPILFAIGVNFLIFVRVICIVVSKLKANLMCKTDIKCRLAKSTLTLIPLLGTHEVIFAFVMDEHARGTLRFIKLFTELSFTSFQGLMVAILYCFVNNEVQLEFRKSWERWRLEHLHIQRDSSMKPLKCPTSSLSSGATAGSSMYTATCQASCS

`CCCCCCCCCCCCCCCC(=O)N[C@@H](CCC(=O)NCCCC[C@H](NC(=O)[C@H](CCC(=O)O)NC(=O)[C@H](CC(=O)O)NC(=O)[C@H](CC(C)C)NC(=O)[C@H](Cc1ccc(O)cc1)NC(=O)[C@H](CCCNC(=N)N)NC(=O)[C@H](CO)NC(=O)[C@H](Cc1ccc(O)cc1)NC(=O)[C@H](CC(=O)O)NC(=O)[C@H](CO)NC(=O)[C@@H](NC(=O)[C@H](Cc1ccccc1)NC(=O)[C@@H](NC(=O)CNC(=O)[C@H](CCC(N)=O)NC(=O)[C@H](CO)NC(=O)[C@@H](N)Cc1c[nH]cn1)[C@@H](C)O)[C@@H](C)O)C(=O)N[C@@H](CCCNC(=N)N)C(=O)N[C@@H](C)C(=O)N[C@@H](CCCNC(=N)N)C(=O)N[C@@H](CC(=O)O)C(=O)N[C@@H](Cc1ccccc1)C(=O)N[C@H](C(=O)N[C@@H](CCC(=O)O)C(=O)N[C@@H](Cc1c[nH]c2ccccc12)C(=O)N[C@@H](CC(C)C)C(=O)N[C@@H](CC(C)C)C(=O)N[C@@H](CO)C(=O)N[C@@H](C)C(N)=O)[C@@H](C)CC)C(=O)O` [Compound 7] (HELM PEPTIDE1{H.S.Q.G.T.F.T.S.D.Y.S.R.Y.L.D.E.K.R.A.R.D.F.I.E.W.L.L.S.A.[am]}|PEPTIDE2{[CCCCCCCCCCCCCCCC(=O)[*:2]].[gGlu]}$PEPTIDE1,PEPTIDE2,17:R3-2:R2$$$V2.0) showed an EC50 (human Glucagon-R) of 0.06 nM and an EC50 (human GLP-1-R) of 0.06 nM.
`CCCCCCCCCCCCCCCC(=O)N[C@@H](CCC(=O)NCCCC[C@H](NC(=O)[C@H](CCC(=O)O)NC(=O)[C@H](CC(=O)O)NC(=O)[C@H](CC(C)C)NC(=O)[C@H](Cc1ccc(O)cc1)NC(=O)[C@H](CCCNC(=N)N)NC(=O)[C@H](CO)NC(=O)[C@H](Cc1ccc(O)cc1)NC(=O)[C@H](CC(=O)O)NC(=O)[C@H](CO)NC(=O)[C@@H](NC(=O)[C@H](Cc1ccccc1)NC(=O)[C@@H](NC(=O)CNC(=O)[C@H](Cc1c[nH]cn1)NC(=O)[C@@H](CO)NC(=O)[C@@H](N)Cc1c[nH]cn1)[C@@H](C)O)[C@@H](C)O)C(=O)N[C@@H](CCCNC(=N)N)C(=O)N[C@@H](C)C(=O)N[C@@H](CCCNC(=N)N)C(=O)N[C@@H](CC(=O)O)C(=O)N[C@@H](Cc1ccccc1)C(=O)N[C@H](C(=O)N[C@@H](CCC(=O)O)C(=O)N[C@@H](Cc1c[nH]c2ccccc12)C(=O)N[C@@H](CC(C)C)C(=O)N[C@@H](CC(C)C)C(=O)N[C@@H](CO)C(=O)N[C@@H](C)C(N)=O)[C@@H](C)CC)C(=O)O` [Compound 11] (HELM PEPTIDE1{H.[dS].H.G.T.F.T.S.D.Y.S.R.Y.L.D.E.K.R.A.R.D.F.I.E.W.L.L.S.A.[am]}|PEPTIDE2{[CCCCCCCCCCCCCCCC(=O)[*:2]].[gGlu]}$PEPTIDE1,PEPTIDE2,17:R3-2:R2$$$V2.0) showed an EC50 (human Glucagon-R) of 0.09 nM.
`CCCCCCCCCCCCCCCC(=O)N[C@@H](CCC(=O)NCCCC[C@H](NC(=O)[C@H](CCC(=O)O)NC(=O)[C@H](CC(=O)O)NC(=O)[C@H](CC(C)C)NC(=O)[C@H](Cc1ccc(O)cc1)NC(=O)[C@H](CCCCN)NC(=O)[C@H](CO)NC(=O)[C@H](Cc1ccc(O)cc1)NC(=O)[C@H](CC(=O)O)NC(=O)[C@H](CO)NC(=O)[C@@H](NC(=O)[C@H](Cc1ccccc1)NC(=O)[C@@H](NC(=O)CNC(=O)[C@H](Cc1c[nH]cn1)NC(=O)[C@H](CO)NC(=O)[C@@H](N)Cc1c[nH]cn1)[C@@H](C)O)[C@@H](C)O)C(=O)N[C@@H](CCCNC(=N)N)C(=O)N[C@@H](C)C(=O)N[C@@H](CCCCN)C(=O)N[C@@H](CC(=O)O)C(=O)N[C@@H](Cc1ccccc1)C(=O)N[C@H](C(=O)N[C@@H](CCC(=O)O)C(=O)N[C@@H](Cc1c[nH]c2ccccc12)C(=O)N[C@@H](CC(C)C)C(=O)N[C@@H](CC(C)C)C(=O)N[C@@H](CO)C(=O)N[C@@H](C)C(N)=O)[C@@H](C)CC)C(=O)O` [Compound 18] (HELM PEPTIDE1{H.S.H.G.T.F.T.S.D.Y.S.K.Y.L.D.E.K.R.A.K.D.F.I.E.W.L.L.S.A.[am]}|PEPTIDE2{[CCCCCCCCCCCCCCCC(=O)[*:2]].[gGlu]}$PEPTIDE1,PEPTIDE2,17:R3-2:R2$$$V2.0) gave an EC50 (human Glucagon-R) of 0.09 nM.

Reference: US20160347813A1, “GLUCAGON ANALOGUES” (Zealand Pharma A/S, priority 2011, published 2016)
